Data set [1] deals with T1, Glucocorticoid receptor (Homo sapiens, UniProt P04150).
T1 sequence (P04150 whole entry): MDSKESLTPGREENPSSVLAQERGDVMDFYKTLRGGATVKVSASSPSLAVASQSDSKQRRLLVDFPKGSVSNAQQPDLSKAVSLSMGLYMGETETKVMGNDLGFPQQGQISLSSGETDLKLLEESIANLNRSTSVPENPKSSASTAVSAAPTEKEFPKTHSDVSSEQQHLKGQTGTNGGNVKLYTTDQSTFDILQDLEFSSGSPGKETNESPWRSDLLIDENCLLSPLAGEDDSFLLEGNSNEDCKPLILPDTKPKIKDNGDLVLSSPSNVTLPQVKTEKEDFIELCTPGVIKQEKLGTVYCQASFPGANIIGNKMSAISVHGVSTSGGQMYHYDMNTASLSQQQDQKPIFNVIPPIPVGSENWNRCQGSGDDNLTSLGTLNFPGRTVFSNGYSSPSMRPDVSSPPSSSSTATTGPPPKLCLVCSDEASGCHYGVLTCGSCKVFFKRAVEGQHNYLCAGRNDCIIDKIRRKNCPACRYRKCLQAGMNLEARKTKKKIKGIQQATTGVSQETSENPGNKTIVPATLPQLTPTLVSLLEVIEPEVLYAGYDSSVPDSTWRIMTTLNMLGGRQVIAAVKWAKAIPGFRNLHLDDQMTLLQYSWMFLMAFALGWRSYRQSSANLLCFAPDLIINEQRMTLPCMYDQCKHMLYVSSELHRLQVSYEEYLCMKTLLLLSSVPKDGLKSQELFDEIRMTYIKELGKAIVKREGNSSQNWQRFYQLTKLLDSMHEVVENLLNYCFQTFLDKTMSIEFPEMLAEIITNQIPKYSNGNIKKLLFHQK
As to the kind of experiment: Antagonist activity at GR in SW1353/MMTV5 cells assessed as inhibition of dexamethasone-induced luciferase expression. In kind it is functional, cell-based.

The target of data set [2] is T1, Glucocorticoid receptor. Nature of the data set: Displacement of [3H]dexamethasone from human recombinant GR.
A short description of data set [3]: Oral bioavailability in rat. Type of data set: ADME, organism-based. To be noted: in vivo.

Among the data in ChEMBL document CHEMBL1142367, “1H-Pyrazolo[3,4-g]hexahydro-isoquinolines as selective glucocorticoid receptor antagonists with high functional activity” (Bioorg Med Chem Lett, 2008) are Ki and bioavailability values, retold here.

Each structure is given as a SMILES string.

Turning to `COC[C@]12Cc3cnn(-c4ccc(F)cc4)c3C=C1CCN(S(=O)(=O)c1ccc(C)cc1)C2`, the inhibition constant (Ki) stood at 5.7 nM at Glucocorticoid receptor [1] and 0.5 nM on Glucocorticoid receptor [2].

`C[C@]12Cc3cnn(-c4ccc(F)cc4)c3C=C1CCN(S(=O)(=O)c1ccc(F)cc1)C2`: the Ki at Glucocorticoid receptor [1] was 293 nM; on Glucocorticoid receptor [2], 9 nM.

In the case of `CN(C)C[C@]12Cc3cnn(-c4ccc(F)cc4)c3C=C1CCN(S(=O)(=O)c1ccc(F)cc1)C2`, the Ki on Glucocorticoid receptor [1] was 29 nM; on Glucocorticoid receptor [2], 2.6 nM.

Turning to `CN(C)C[C@]12Cc3cnn(-c4ccc(F)cc4)c3C=C1CCN(S(=O)(=O)c1ccc(C(C)(C)C)cc1)C2`, the values for the Ki at Glucocorticoid receptor [1] and at Glucocorticoid receptor [2] were 6.9 nM and 1.2 nM, respectively. This compound also yielded a bioavailability in data set [3] of 0%.

Regarding `CC(C)(C)c1ccc(S(=O)(=O)N2CCC3=Cc4c(cnn4-c4ccc(F)cc4)C[C@]3(Cc3ccccc3)C2)cc1`, the Ki was 4.7 nM at Glucocorticoid receptor [1] and 1.4 nM on Glucocorticoid receptor [2].

With `C[C@]12Cc3cnn(-c4ccc(F)cc4)c3C=C1CCN(S(=O)(=O)c1ccccc1F)C2`, the inhibition constant Ki at Glucocorticoid receptor [2] is 34 nM.

As for `O=S(=O)(c1ccccc1)N1CCC2=Cc3c(cnn3-c3ccc(F)cc3)C[C@]2(CN2CCCC2)C1`, the Ki on Glucocorticoid receptor [1] stood at 4.9 nM; on Glucocorticoid receptor [2], 1.5 nM.

Consider `CN(C)C[C@]12Cc3cnn(-c4ccc(F)cc4)c3C=C1CCN(S(=O)(=O)c1ccccc1)C2`, for which the figures for the Ki on Glucocorticoid receptor [1] and at Glucocorticoid receptor [2] were 10 nM and 1.1 nM, respectively.

Turning to `CC(C)NC[C@]12Cc3cnn(-c4ccc(F)cc4)c3C=C1CCN(S(=O)(=O)c1ccc(C(C)(C)C)cc1)C2`, the values for the inhibitory constant (Ki) on Glucocorticoid receptor [1] and at Glucocorticoid receptor [2] were 17 nM and 2.1 nM, respectively. This compound also had a bioavailability in data set [3] of 5%.

For the compound `CC(C)(C)c1ccc(S(=O)(=O)N2CCC3=Cc4c(cnn4-c4ccc(F)cc4)C[C@]3(CN3CCCCC3)C2)cc1`, the Ki on Glucocorticoid receptor [1] was 5.8 nM; at Glucocorticoid receptor [2] it was 1.6 nM.

For `O=S(=O)(c1ccccc1)N1CCC2=Cc3c(cnn3-c3ccc(F)cc3)C[C@]2(CO)C1`, at Glucocorticoid receptor [2], the Ki is 10 nM.

Turning to `COCCNC[C@]12Cc3cnn(-c4ccc(F)cc4)c3C=C1CCN(S(=O)(=O)c1ccc(C(C)(C)C)cc1)C2`, the results for the Ki at Glucocorticoid receptor [1] and at Glucocorticoid receptor [2] were 3.1 nM and 1 nM, respectively. For the same compound, the bioavailability in data set [3] worked out at 0%.

In the case of `CC(C)(C)c1ccc(S(=O)(=O)N2CCC3=Cc4c(cnn4-c4ccc(F)cc4)C[C@]3(COCCO)C2)cc1`, the inhibition constant Ki on Glucocorticoid receptor [1] was 8.7 nM; on Glucocorticoid receptor [2] it was 0.8 nM.

As for `COCCOC[C@]12Cc3cnn(-c4ccc(F)cc4)c3C=C1CCN(S(=O)(=O)c1ccc(C(C)(C)C)cc1)C2`, the inhibition constant Ki on Glucocorticoid receptor [1] came out at 0.6 nM; at Glucocorticoid receptor [2], 0.7 nM. The bioavailability in data set [3] was 0%.

As for `COCCOC[C@]12Cc3cnn(-c4ccc(F)cc4)c3C=C1CCN(S(=O)(=O)c1ccccc1)C2`, the figures for the Ki on Glucocorticoid receptor [1] and on Glucocorticoid receptor [2] were 2.9 nM and 0.5 nM, respectively.

Compound `COCCOC[C@]12Cc3cnn(-c4ccc(F)cc4)c3C=C1CCN(S(=O)(=O)c1ccc(C)cc1)C2` had a bioavailability in data set [3] of 8%.

As for `CC(C)(C)c1ccc(S(=O)(=O)N2CCC3=Cc4c(cnn4-c4ccc(F)cc4)C[C@]3(CO)C2)cc1`, the inhibition constant Ki at Glucocorticoid receptor [1] was 47 nM; on Glucocorticoid receptor [2], 1.6 nM.

Turning to `CCCOC[C@]12Cc3cnn(-c4ccc(F)cc4)c3C=C1CCN(S(=O)(=O)c1ccc(C(F)(F)F)cc1)C2`, the Ki at Glucocorticoid receptor [1] was found to be 9 nM; on Glucocorticoid receptor [2], 0.9 nM.

Take `O=S(=O)(c1ccc(F)cc1)N1CCC2=Cc3c(cnn3-c3ccc(F)cc3)C[C@]2(CO)C1`: the Ki was determined as 184 nM on Glucocorticoid receptor [1] and 8.6 nM at Glucocorticoid receptor [2].

As for `CCOC[C@]12Cc3cnn(-c4ccc(F)cc4)c3C=C1CCN(S(=O)(=O)c1ccc(C(C)(C)C)cc1)C2`, the figures for the Ki at Glucocorticoid receptor [1] and on Glucocorticoid receptor [2] were 1.9 nM and 0.8 nM, respectively.

Consider `C[C@]12Cc3cnn(-c4ccc(F)cc4)c3C=C1CCN(S(=O)(=O)c1ccc(N)cc1)C2`, for which the inhibitory constant (Ki) on Glucocorticoid receptor [1] was greater than 1000 nM; on Glucocorticoid receptor [2] it was 17 nM.

`CC(C)(C)c1ccc(S(=O)(=O)N2CCC3=Cc4c(cnn4-c4ccc(F)cc4)C[C@]3(CNCCO)C2)cc1`: the Ki on Glucocorticoid receptor [1] is 28 nM; at Glucocorticoid receptor [2], 2.8 nM.

In the case of `Cc1ccc(S(=O)(=O)N2CCC3=Cc4c(cnn4-c4ccc(F)cc4)C[C@]3(C)C2)cc1`, the values for the inhibition constant (Ki) on Glucocorticoid receptor [1] and at Glucocorticoid receptor [2] were 96 nM and 2.3 nM, respectively.

Consider `C=CCNC[C@]12Cc3cnn(-c4ccc(F)cc4)c3C=C1CCN(S(=O)(=O)c1ccc(C(C)(C)C)cc1)C2`, for which the inhibitory constant (Ki) turned out to be 11 nM at Glucocorticoid receptor [1] and 0.9 nM at Glucocorticoid receptor [2].

`CC(C)(C)c1ccc(S(=O)(=O)N2CCC3=Cc4c(cnn4-c4ccc(F)cc4)C[C@]3(CN3CCC3)C2)cc1`: the values for the inhibition constant (Ki) at Glucocorticoid receptor [1] and on Glucocorticoid receptor [2] were 11 nM and 1.4 nM, respectively. In data set [3], this compound had a bioavailability of 4%.

Consider `CN1CCN(C[C@]23Cc4cnn(-c5ccc(F)cc5)c4C=C2CCN(S(=O)(=O)c2ccc(C(C)(C)C)cc2)C3)CC1`, for which the Ki came to 85 nM on Glucocorticoid receptor [1] and 6.7 nM on Glucocorticoid receptor [2].

For the compound `CCN(CC)C[C@]12Cc3cnn(-c4ccc(F)cc4)c3C=C1CCN(S(=O)(=O)c1ccc(C(C)(C)C)cc1)C2`, the Ki at Glucocorticoid receptor [1] came out at 14 nM; at Glucocorticoid receptor [2], 1.7 nM.

`Cc1ccccc1S(=O)(=O)N1CCC2=Cc3c(cnn3-c3ccc(F)cc3)C[C@]2(C)C1`: at Glucocorticoid receptor [2], the inhibitory constant (Ki) turned out to be 22 nM.

On to `CC(C)(C)c1ccc(S(=O)(=O)N2CCC3=Cc4c(cnn4-c4ccc(F)cc4)C[C@]3(COCCN3CCCCC3)C2)cc1`, for which the Ki turned out to be 77 nM on Glucocorticoid receptor [1] and 8.6 nM at Glucocorticoid receptor [2].

In the case of `CCNC[C@]12Cc3cnn(-c4ccc(F)cc4)c3C=C1CCN(S(=O)(=O)c1ccc(C(C)(C)C)cc1)C2`, the Ki on Glucocorticoid receptor [1] is 16 nM; on Glucocorticoid receptor [2], 2.4 nM. In data set [3], this compound had a bioavailability of 0%.

For `COCCCOC[C@]12Cc3cnn(-c4ccc(F)cc4)c3C=C1CCN(S(=O)(=O)c1ccc(C(C)(C)C)cc1)C2`, the Ki at Glucocorticoid receptor [1] was 1.6 nM; on Glucocorticoid receptor [2], 0.8 nM.

On to `O=S(=O)(c1ccccc1)N1CCC2=Cc3c(cnn3-c3ccc(F)cc3)C[C@]2(CN2CCCCC2)C1`, for which the inhibition constant (Ki) on Glucocorticoid receptor [1] was 5.8 nM; at Glucocorticoid receptor [2], 0.8 nM.

Turning to `O=S(=O)(c1ccc(F)cc1)N1CCC2=Cc3c(cnn3-c3ccc(F)cc3)C[C@]2(CN2CCCC2)C1`, the Ki at Glucocorticoid receptor [1] turned out to be 8 nM; at Glucocorticoid receptor [2], 1.6 nM.

With `C[C@]12Cc3cnn(-c4ccc(F)cc4)c3C=C1CCN(S(=O)(=O)c1ccc(C(F)(F)F)cc1)C2`, the Ki worked out at 78 nM on Glucocorticoid receptor [1] and 3.4 nM at Glucocorticoid receptor [2].

Regarding `CC(C)(C)c1ccc(S(=O)(=O)N2CCC3=Cc4c(cnn4-c4ccc(F)cc4)C[C@]3(COCCC#N)C2)cc1`, the Ki at Glucocorticoid receptor [1] turned out to be 5.1 nM; at Glucocorticoid receptor [2] it was 0.8 nM. The compound further had a bioavailability in data set [3] of 2%.

Consider `COc1ccc(S(=O)(=O)N2CCC3=Cc4c(cnn4-c4ccc(F)cc4)C[C@]3(C)C2)cc1`, for which the inhibition constant Ki was 178 nM on Glucocorticoid receptor [1] and 3.7 nM on Glucocorticoid receptor [2].

Regarding `CC(C)(C)c1ccc(S(=O)(=O)N2CCC3=Cc4c(cnn4-c4ccc(F)cc4)C[C@]3(CN3CCCC3)C2)cc1`, the values for the inhibition constant (Ki) at Glucocorticoid receptor [1] and on Glucocorticoid receptor [2] were 3.4 nM and 1.1 nM, respectively. In data set [3], this compound registered a bioavailability of 2%.

For `CN(C)CCNC[C@]12Cc3cnn(-c4ccc(F)cc4)c3C=C1CCN(S(=O)(=O)c1ccc(C(C)(C)C)cc1)C2`, the inhibitory constant (Ki) at Glucocorticoid receptor [1] stood at 60 nM; at Glucocorticoid receptor [2] it was 3.8 nM.

As for `Fc1ccc(CC23Cc4cnn(-c5ccc(F)cc5)c4C=C2CCN(Cc2cccnc2)C3)cc1` (racemic), the Ki at Glucocorticoid receptor [1] was greater than 1000 nM; on Glucocorticoid receptor [2], 22 nM.

Regarding `O=C(c1ccccc1)N1CCC2=Cc3c(cnn3-c3ccc(F)cc3)CC2(Cc2ccc(F)cc2)C1` (racemic), the Ki on Glucocorticoid receptor [2] was greater than 1000 nM.

With `CC(C)(C)c1ccc(S(=O)(=O)N2CCC3=Cc4c(cnn4-c4ccc(F)cc4)CC3(Cc3ccc(F)cc3)C2)cc1` (racemic), the Ki was 14 nM at Glucocorticoid receptor [1] and 1.3 nM on Glucocorticoid receptor [2].

For the compound `O=S(=O)(c1ccccc1)N1CCC2=Cc3c(cnn3-c3ccc(F)cc3)CC2(Cc2ccc(F)cc2)C1` (racemic), the Ki came out at 36 nM at Glucocorticoid receptor [1] and 2.2 nM at Glucocorticoid receptor [2].

On to `O=S(=O)(N1CCOCC1)N1CCC2=Cc3c(cnn3-c3ccc(F)cc3)CC2(Cc2ccc(F)cc2)C1` (racemic), for which the values for the inhibition constant (Ki) at Glucocorticoid receptor [1] and on Glucocorticoid receptor [2] were greater than 1000 nM and 26 nM, respectively.

For the compound `O=S(=O)(c1ccc(F)cc1)N1CCC2=Cc3c(cnn3-c3ccc(F)cc3)CC2(Cc2ccc(F)cc2)C1` (racemic), the Ki at Glucocorticoid receptor [1] stood at 26 nM; at Glucocorticoid receptor [2], 1.4 nM.

Turning to `O=S(=O)(c1ccc(N2CCOCC2)cc1)N1CCC2=Cc3c(cnn3-c3ccc(F)cc3)CC2(Cc2ccc(F)cc2)C1` (racemic), the figures for the Ki on Glucocorticoid receptor [1] and at Glucocorticoid receptor [2] were 11 nM and 1.3 nM, respectively.

For `CS(=O)(=O)N1CCC2=Cc3c(cnn3-c3ccc(F)cc3)CC2(Cc2ccc(F)cc2)C1` (racemic), the Ki at Glucocorticoid receptor [1] was greater than 1000 nM; at Glucocorticoid receptor [2], 13 nM.

For `Cc1ccc(S(=O)(=O)N2CCC3=Cc4c(cnn4-c4ccc(F)cc4)CC3(Cc3ccc(F)cc3)C2)cc1` (racemic), the Ki came to 17 nM at Glucocorticoid receptor [1] and 1.5 nM on Glucocorticoid receptor [2].

Turning to `CCOC[C@]12Cc3cnn(-c4ccc(F)cc4)c3C=C1CCN(S(=O)(=O)c1ccc(C(F)(F)F)cc1)C2` [CORT 108297], the Ki on Glucocorticoid receptor [1] was 6.8 nM; on Glucocorticoid receptor [2] it was 0.9 nM.

Broadly, the Ki is the equilibrium dissociation constant of an inhibitor or competing ligand from its target. As a reminder, the bioavailability is the share of a dose that reaches the circulation, judged against a reference dose that is usually intravenous. High values mean good availability, low ones poor availability.
